Assay [1] deals with T1, Arabidopsis thaliana DHS2 (AtDHS2), wild type (DHS2^WT), SEQ ID NO:2 (Arabidopsis thaliana, UniProt Q00218).
T1 construct: without the predicted plastid transit peptide (amino acid residues; 49-525, 34-507, and 52-527, respectively); made in house; host or cells: E. coli Rosetta-2
The note with it: reference 9; cited from earlier work.

The target in another assay is T2, DHS2^WT (Arabidopsis thaliana, UniProt Q00218).
T2 construct: without the predicted plastid transit peptide (amino acid residues; 49-525, 34-507, and 52-527, respectively); made in house; host or cells: E. coli Rosetta-2
Put plainly: DHS enzyme assay, recombinant DHS2^WT. The note with it: recombinant enzyme; read-out: IC50 of effector molecule on DHS2^WT. Type of assay: biochemical. The protocol:
(§1) To generate recombinant DHS proteins the pET28a vectors carrying the A. thaliana DHS1 (AtDHS1), AtDHS2, or AtDHS3 WT sequence without the predicted plastid transit peptide (amino acid residues; 49-525, 34-507, and 52-527, respectively) were expressed in E. coli Rosetta-2 cells and purified using Ni-affinity chromatography, exactly as was conducted previously (9). To generate DHS proteins with individual sota mutations via site-directed mutagenesis, these pET28a plasmid templates were diluted by 500-fold, mixed with 0.04 U/μL Phusion DNA polymerase (Thermo Scientific), 0.2 mM deoxynucleoside triphosphates (dNTPs), 1× Phusion reaction buffer (Thermo Scientific), and 0.5 μM forward and reverse mutagenesis primers (Table 10). The PCR reaction was run using the following protocol: 98° C. for 30 s followed by 20 cycles of 10 s at 98° C., 20 s at 70° C., 4.5 min at 72° C. with a final extension at 72° C. for 10 min. The PCR products were purified using a QIAquick Gel Extraction Kit (QIAGEN), treated with FastDigest DpnI (Thermo Scientific) to digest methylated plasmid template DNA for 20 min at 37° C., and transformed into E. coli cells. The mutagenized pET28a plasmids were sequenced to confirm that no errors were introduced during the mutagenesis process.
The DHS enzyme assays were conducted using the colorimetric method that we recently described (9). Briefly, the enzyme solution (7.7 μl) containing 50 mM Hepes (pH 7.4) was preincubated with an effector molecule(s) at room temperature for 15 min. For assays using recombinant protein and enzyme fractions isolated from plant leaves, 0.01 to 0.1 μg and approximately 50 μg of proteins were used, respectively. After adding 0.5 μl of 0.1 M dithiothreitol, the samples were further incubated at room temperature for 15 min. During these incubations, the substrate solution containing 50 mM Hepes (pH 7.4), 2 mM MnCl2, 4 mM E4P, and 4 mM PEP at final concentration was preheated at 37° C. The enzyme reaction was started by adding 6.8 μl of the substrate solution, then incubated at 37° C. for 30 min, and terminated by adding 30 μl of 0.6 M trichloroacetic acid. After a brief centrifugation, 5 μl of 200 mM NaIO4 (sodium meta-periodate) in 9 N H3PO4 was added to oxidize the enzymatic product and to incubate at 25° C. for 20 min. To stop the oxidation reaction, 20 μl of 0.75 M NaAsO2 (sodium arsenite), which was dissolved in 0.5 M Na2SO4 and 0.05 M H2SO4, was added and immediately mixed. After 5 min of incubation at room temperature, one-third of the sample solution was transferred to a new tube to be mixed with 50 μl of 40 mM thiobarbituric acid and incubated at 99° C. for 15 min in a thermal cycler. The mixture was added to 600 μl of cyclohexanone in eight-strip solvent-resistant plastic tubes, mixed vigorously, and centrifuged at 4500 g for 3 min to separate water- and cyclohexanone-based layers for the extraction off the developed pink chromophore. The absorbance of the pink supernatant was read at 549 nm with the microplate reader (Infinite 200 PRO, TECAN) to calculate DAHP production with the molar extinction coefficient at 549 nm (ε=549 nm) of 4.5×10^4 M^−1 cm^−1. Reaction mixtures with boiled enzymes were run in parallel and used as negative controls to estimate the background signal.

Another assay deals with sota mutant DHS enzymes. Put plainly: DHS enzyme assay, sota mutant enzymes compared with corresponding WT enzymes. Type of assay: biochemical, Arabidopsis thaliana. As for the experimental part: as §1, with “The PCR products were purified using a QIAquick Gel Extraction Kit (QIAGEN), treated with FastDigest DpnI (Thermo Scientific) to digest methylated plasmid template DNA for 20 min at 37° C., and transformed into E. coli cells. The mutagenized pET28a plasmids were sequenced to confirm that no errors were introduced during the mutagenesis process.” left out
The DHS enzyme assays were conducted using the colorimetric method that we recently described (9). […] The absorbance of the pink supernatant was read at 549 nm with the microplate reader (Infinite 200 PRO, TECAN) to calculate DAHP production with the molar extinction coefficient at 549 nm (ε=549 nm) of 4.5×10^4 M^−1 cm^−1. […]

Results on three compounds are retold here after patent US20250043299A1, “POINT MUTATIONS THAT BOOST AROMATIC AMINO ACID PRODUCTION AND CO2 ASSIMILATION IN PLANTS” (Wisconsin Alumni Research Foundation, priority 2021, published 2025).

T2 sequence (Q00218 34-507): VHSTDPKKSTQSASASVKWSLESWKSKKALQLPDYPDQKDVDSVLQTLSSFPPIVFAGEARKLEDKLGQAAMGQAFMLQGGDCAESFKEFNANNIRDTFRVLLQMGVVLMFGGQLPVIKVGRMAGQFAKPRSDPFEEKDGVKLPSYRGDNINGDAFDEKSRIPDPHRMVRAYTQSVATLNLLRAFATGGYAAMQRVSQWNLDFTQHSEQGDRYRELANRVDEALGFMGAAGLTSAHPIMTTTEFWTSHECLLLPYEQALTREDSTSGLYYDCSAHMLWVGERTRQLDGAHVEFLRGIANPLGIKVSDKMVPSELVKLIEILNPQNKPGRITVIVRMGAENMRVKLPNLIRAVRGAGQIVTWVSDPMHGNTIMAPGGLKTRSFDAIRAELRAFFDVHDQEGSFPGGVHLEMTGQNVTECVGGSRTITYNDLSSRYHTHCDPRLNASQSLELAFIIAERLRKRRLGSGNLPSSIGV
T1 sequence (Q00218 34-507): as above

`N[C@@H](Cc1c[nH]c2ccccc12)C(=O)O` [Trp, tryptophan]: in assay [1], the “inhibition of DHS2” value is listed as “inhibit Arabidopsis DHS2”. Usually IC50 stands for the midpoint of a concentration-inhibition curve. For the compound `O=C(O)Cc1cc(O)ccc1O` [HGA, homogentisate], the IC50 on DHS2^WT worked out at 73.9 µM. As for `O=C(O)C(=O)Cc1ccc(O)cc1` [HPP, 4-Hydroxyphenylpyruvate], the “increase of IC50 in sota mutant enzymes over corresponding WT enzymes” value in the assay with sota mutant DHS enzymes is “up to 7 fold”.
